Each structure is given as a SMILES string.

The source of these data is patent US20120100990A1, “4 -AMINOPICOLINATES AND THEIR USE AS HERBICIDES” (SYNGENTA CROP PROTECTION LLC, priority 2009, published 2012).

What all share (assay type): in vivo
Experiment [1] has as its system Ipomea hederaceae (IPOHE). Nature of the experiment: Pre-emergence biological efficacy, glasshouse pot test. The settings on record: Ipomoea hederacea, 312 h, 1,000 g/ha, evaluated after 13 days, 100=total damage, 0=no damage, read-out: Percentage damage caused to weed species, pre-emergence, IPOHE. The gist of the method: (§1)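 Damage ratings (0 no damage to 100 total damage) were taken 13 days after treatment. Compound had been applied at 1000 or 250 g/ha as an aqueous spray from acetone/water (50:50) with 0.5% Tween 20, one day after sowing in soil.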

Experiment [2] deals with Alopecurus myosuroides (ALOMY). The description is as above. The settings on record: 312 h, 1,000 g/ha, evaluated after 13 days, 100=total damage, 0=no damage, read-out: Percentage damage caused to weed species, pre-emergence, ALOMY. The gist of the method:
as §1

In experiment [3] the test system is Solanum nigrum (SOLNI). The description is as above. As to conditions: 312 h, 1,000 g/ha, evaluated after 13 days, 100=total damage, 0=no damage, read-out: Percentage damage caused to weed species, pre-emergence, SOLNI. The gist of the method:
as §1

The test system of experiment [4] is Amaranthus retroflexus (AMARE). The experiment is described as above. As to conditions: 312 h, 1,000 g/ha, evaluated after 13 days, 100=total damage, 0=no damage, read-out: Percentage damage caused to weed species, pre-emergence, AMARE. The essentials: as §1
The test system of experiment [5] is Setaria faberi (SETFA). The description is as above. As to conditions: 312 h, 1,000 g/ha, evaluated after 13 days, 100=total damage, 0=no damage, read-out: Percentage damage caused to weed species, pre-emergence, SETFA. The essentials: as §1
The test system of experiment [6] is Echinochloa crus-galli (ECHCG). The experiment is described as above. The settings on record: 312 h, 1,000 g/ha, evaluated after 13 days, 100=total damage, 0=no damage, read-out: Percentage damage caused to weed species, pre-emergence, ECHCG. The gist of the method:
as §1

For experiment [7], the system named is Ipomea hederaceae (IPOHE). Nature of the experiment: Post-emergence biological efficacy, glasshouse pot test. As to conditions: Ipomoea hederacea, 312 h, 1,000 g/ha, evaluated after 13 days, 100=total damage, 0=no damage, read-out: Percentage damage caused to weed species, post-emergence, IPOHE. The essentials: (§2)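 Weeds grown 8 days in glasshouse pots (24/16 °C, 14 h light, 65% humidity) were sprayed with compound in acetone/water plus 0.5% Tween 20 at 1000 or 250 g/ha. Damage was scored 13 days later on a 0–100 scale (100 = total damage).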

Experiment [8] deals with Alopecurus myosuroides (ALOMY). The description is as above. As to conditions: 312 h, 1,000 g/ha, evaluated after 13 days, 100=total damage, 0=no damage, read-out: Percentage damage caused to weed species, post-emergence, ALOMY. The essentials: as §2
In experiment [9] the test system is Solanum nigrum (SOLNI). The description is as above. As to conditions: 312 h, 1,000 g/ha, evaluated after 13 days, 100=total damage, 0=no damage, read-out: Percentage damage caused to weed species, post-emergence, SOLNI. The essentials: as §2
The subject of experiment [10] is Amaranthus retroflexus (AMARE). Described as above. The settings on record: 312 h, 1,000 g/ha, evaluated after 13 days, 100=total damage, 0=no damage, read-out: Percentage damage caused to weed species, post-emergence, AMARE. The gist of the method:
as §2

In experiment [11] the test system is Setaria faberi (SETFA). Described as above. The settings on record: 312 h, 1,000 g/ha, evaluated after 13 days, 100=total damage, 0=no damage, read-out: Percentage damage caused to weed species, post-emergence, SETFA. The essentials:
as §2

The subject of experiment [12] is Echinochloa crus-galli (ECHCG). The description is as above. The settings on record: 312 h, 1,000 g/ha, evaluated after 13 days, 100=total damage, 0=no damage, read-out: Percentage damage caused to weed species, post-emergence, ECHCG. The gist of the method: as §2

For `COC(=O)c1nc(Cl)c(F)c(NCc2ccccc2[N+](=O)[O-])c1Br` [Compound 15-29, 3-bromo-6-chloro-5-fluoro-4-[(2-nitrophenyl-methyl)-amino]-pyridine-2-carboxylic acid methyl ester], the pest or weed control at 1000 g/ha in experiment [1] was 100%; in experiment [2], 90%; with Solanum nigrum (SOLNI) [3] it was 90%; in [4], 90%; in the experiment on Setaria faberi (SETFA) [5] it was 40%; in [6] it was 70%. The pest or weed control at 1000 g/ha was 70% in experiment [7]; 50% in [8]; 100% in the experiment on Solanum nigrum (SOLNI) [9]; 100% in experiment [10]; 80% in the experiment with Setaria faberi (SETFA) [11]; 50% in experiment [12].
Regarding `C=Cc1c(NCc2ccccc2Cl)cc(Cl)nc1C(=O)OC` [Compound 3-12, 6-Chloro-4-[(2-chlorophenyl-methyl)-amino]-3-ethenyl-pyridine-2-carboxylic acid methyl ester], the pest or weed control at 1000 g/ha in experiment [1] turned out to be 50%; in [2] it was 20%; with Solanum nigrum (SOLNI) [3] it was 90%; in experiment [4], 100%; in the experiment with Setaria faberi (SETFA) [5] it was 10%; in experiment [6] it was 0%. For the same molecule, the pest or weed control at 1000 g/ha in experiment [7] amounted to 40%; in [8], 0%; in the experiment with Solanum nigrum (SOLNI) [9], 90%; in experiment [10], 100%; in the experiment on Setaria faberi (SETFA) [11], 10%; in experiment [12], 20%.
In the case of `C=Cc1c(C(=O)OC)nc(Cl)c(F)c1NCc1ccccc1[N+](=O)[O-]` [Compound 15-27, 6-Chloro-3-ethenyl-5-fluoro-4-[(2-nitrophenylmeth-yl)amino]-pyridine-2-carboxylic acid methyl ester], the pest or weed control at 1000 g/ha in [1] was 90%; in experiment [2], 90%; with Solanum nigrum (SOLNI) [3] it was 100%; in experiment [4], 100%; in the experiment on Setaria faberi (SETFA) [5], 90%; in [6], 90%. Further, the pest or weed control at 1000 g/ha stood at 90% in [7]; 70% in [8]; 100% in the experiment on Solanum nigrum (SOLNI) [9]; 100% in experiment [10]; 90% in the experiment with Setaria faberi (SETFA) [11]; 70% in [12].
As to `C=Cc1c(C(=O)OC)nc(Cl)c(Cl)c1NCc1ccccc1[N+](=O)[O-]` [Compound 15-39, 5,6-Dichloro-3-ethenyl-4-[(2-nitrophenylmeth-yl)-amino]-pyridine-2-carboxylic acid methyl ester], the pest or weed control at 1000 g/ha in experiment [1] worked out at 90%; in experiment [2], 30%; in the experiment on Solanum nigrum (SOLNI) [3], 100%; in experiment [4], 100%; in the experiment with Setaria faberi (SETFA) [5], 40%; in experiment [6], 80%. Moreover, the pest or weed control at 1000 g/ha is 90% in experiment [7]; 60% in experiment [8]; 100% in the experiment on Solanum nigrum (SOLNI) [9]; 100% in experiment [10]; 80% in the experiment with Setaria faberi (SETFA) [11]; 60% in experiment [12].
Turning to `COC(=O)c1nc(Cl)cc(NCc2ccco2)c1C1CC1` [Compound 26-7, 6-chloro-3-cyclopropyl-4-[(furan-2-ylmethyl)-amino]-pyridine-2-carboxylic acid methyl ester], the pest or weed control at 1000 g/ha in [1] amounted to 70%; in [2] it was 10%; in the experiment with Solanum nigrum (SOLNI) [3], 80%; in experiment [4], 60%; with Setaria faberi (SETFA) [5], 10%; in experiment [6], 10%. The pest or weed control at 1000 g/ha was determined as 30% in experiment [7]; 0% in experiment [8]; 70% with Solanum nigrum (SOLNI) [9]; 40% in experiment [10]; 0% in the experiment with Setaria faberi (SETFA) [11]; 0% in [12].
For `C=Cc1c(NCc2ccc(N(C)C)cc2)cc(Cl)nc1C(=O)OC` [Compound 14-12, 6-Chloro-4-[(4-dimethylamino-phenylmethyl)-amino]-3-ethenyl-pyridine-2-carboxylic acid methyl ester], the pest or weed control at 1000 g/ha in [1] amounted to 100%; in experiment [2] it was 80%; with Solanum nigrum (SOLNI) [3], 100%; in [4], 100%; in the experiment with Setaria faberi (SETFA) [5] it was 80%; in [6], 30%. Moreover, the pest or weed control at 1000 g/ha amounted to 50% in experiment [7]; 60% in experiment [8]; 90% in the experiment with Solanum nigrum (SOLNI) [9]; 100% in experiment [10]; 80% in the experiment with Setaria faberi (SETFA) [11]; 50% in [12].
Take `C=Cc1c(NCc2ccco2)cc(-c2ccc(Cl)c(OC)c2F)nc1C(=O)OC` [Compound 26-174, 6-(4-chloro-2-fluoro-3-methoxy-phenyl)-3-ethenyl-4-[(furan-2-ylmethyl)-amino]-pyridine-2-carboxylic acid methyl ester]: the pest or weed control at 1000 g/ha in [1] was determined as 90%; in experiment [2], 20%; in the experiment with Solanum nigrum (SOLNI) [3], 90%; in experiment [4], 80%; in the experiment with Setaria faberi (SETFA) [5], 10%; in [6] it was 30%. For the same molecule, the pest or weed control at 1000 g/ha in experiment [7] turned out to be 50%; in [8], 10%; in the experiment on Solanum nigrum (SOLNI) [9] it was 100%; in experiment [10] it was 100%; in the experiment with Setaria faberi (SETFA) [11], 0%; in experiment [12], 20%.
On to `COC(=O)c1nc(Cl)cc(NCc2cccnc2)c1Cl` [Compound 78-2, 3,6-Dichloro-4-(pyridin-3-ylmethylamino)-pyridine-2-carboxylic acid methyl ester], for which the pest or weed control at 1000 g/ha in experiment [1] was found to be 90%; in experiment [2] it was 40%; in the experiment with Solanum nigrum (SOLNI) [3], 100%; in [4], 100%; in the experiment with Setaria faberi (SETFA) [5], 50%; in [6], 20%. Moreover, the pest or weed control at 1000 g/ha stood at 70% in [7]; 20% in experiment [8]; 100% with Solanum nigrum (SOLNI) [9]; 100% in experiment [10]; 50% in the experiment with Setaria faberi (SETFA) [11]; 20% in [12].
